Measurements as given in ChEMBL document CHEMBL5352461, “Discovery of the novel Benzo[b]thiophene 1,1-dioxide derivatives as a potent STAT3 inhibitor against idiopathic pulmonary fibrosis” (Eur J Med Chem, 2023).
Activity calls are given as the source filed them. The rule behind the calls is not given here.

What was measured:
NIH3T3 [1] = test: Antifibrotic activity in TGF-beta1-induced mouse NIH3T3 cells assessed as inhibition of alpha-SMA expression at 50 nM incubated for 24 hrs by Western blot analysis; format: functional, cell-based
A549 [2] = test: Antiproliferative activity against TGFbeta-induced human A549 cells assessed as reduction in cell viability at 200 nM incubated for 72 hrs by CCK-8 assay; format: functional
Mus musculus [3] = test: Antifibrotic activity against bleomycin-induced C57BL/6 mouse lung fibrosis model assessed as reduction in STAT3 phosphorylation at Ty705 residue in lung at 60 mg/kg, ip by immunohistochemical staining based analysis; format: functional, organism-based
A549 [4] = test: Inhibition of epithelial-mesenchymal transition in human A549 cells assessed as effect on alpha-SMA by measuring fluorescence intensity measured for 24 hrs by immunofluorescence assays; format: functional, cell-based
Mus musculus [5] = test: Antifibrotic activity against bleomycin-induced C57BL/6 mouse lung fibrosis model assessed as inhibition of hydroxyproline content in lung at 60 mg/kg, ip; format: functional, organism-based
A549 [6] = test: Inhibition of epithelial-mesenchymal transition in TGF-beta1-induced human A549 cells assessed as effect on E-cadherin by measuring fluorescence intensity at 200 nM incubated for 24 hrs by immunofluorescence assays; format: functional, cell-based
NIH3T3 [7] = test: Inhibition of colony formation in mouse NIH3T3 cells assessed as inhibition of cell proliferation incubated for 2 weeks by crystal violet staining based microscopic analysis; format: functional; details: dose <= 100.0 nM
A549 [8] = test: Antiproliferative activity against TGFbeta-induced human A549 cells assessed as reduction in cell viability incubated for 72 hrs by CCK-8 assay; format: functional, cell-based; details: dose 25-400 nM
A549 [9] = test: Inhibition of cell migration in TGF-beta1 induced human A549 cells measured for 24 hrs by contrast-phase microscopic analysis; format: functional, cell-based
Mus musculus [10] = test: Antifibrotic activity against bleomycin-induced C57BL/6 mouse lung fibrosis model assessed as prevention of belomycin-induced collagen-1 expression in lung at 60 mg/kg, ip by immunohistochemical staining based analysis; format: functional, organism-based
Mus musculus [11] = test: Antifibrotic activity against bleomycin-induced pulmonary fibrosis C57BL/6 mouse model assessed as increase in inter-alveolar space at 60 mg/kg, ip administered for 20 days and measured on 21 day; format: functional, organism-based
A549 [12] = test: Induction of morphological changes in TGF-beta1 induced human A549 cells assessed as appearance of spindle shape cells at 200 nM measured for 24 hrs by phase contrast microscopy analysis; format: functional, cell-based
Mus musculus [13] = species: Mus musculus; test: Antifibrotic activity against bleomycin-induced C57BL/6 mouse lung fibrosis model assessed as reduction in F4/80+CD11b+ macrophage in lung at low dose incubated for 30 mins by flow cytometry analysis ( Rvb = 17.96%); format: functional; design: scale not given: the % may be the effect or the level left; details: 0.5 h
NIH3T3 [14] = test: Antiproliferative activity against TGFbeta-induced mouse NIH3T3 cells assessed as cell viability at 6.25 to 100 nM incubated for 24 to 72 hrs by CCK-8 assay; format: functional, cell-based; details: dose 6.25-100 nM, time 24-72 hrs
Mus musculus [15] = species: Mus musculus; test: Antifibrotic activity against bleomycin-induced C57BL/6 mouse lung fibrosis model assessed as reduction in F4/80+CD11b+ macrophage incubated for 30 mins by flow cytometry analysis; format: functional, organism-based
NIH3T3 [16] = test: Antifibrotic activity in TGF-beta1-induced mouse NIH3T3 cells assessed as inhibition of STAT3 phosphorylation at 50 nM incubated for 24 hrs by Western blot analysis; format: functional, cell-based
[17] = Toxicity in C57BL/6 mouse assessed as kidney lesion at 60 mg/kg, ip by H and E staining based analysis; format: organism-based; details: in vivo
NIH3T3 [18] = test: Antifibrotic activity in TGF-beta1-induced mouse NIH3T3 cells assessed as inhibition of collagen-1 expression at 50 nM incubated for 24 hrs by Western blot analysis; format: functional, cell-based
Mus musculus [19] = species: Mus musculus; test: Antifibrotic activity against bleomycin-induced C57BL/6 mouse lung fibrosis model assessed as reduction in CD4-CD69+ T cell in lung at high dose incubated for 30 mins by flow cytometry analysis ( Rvb = 6.54%); format: functional; design: scale not given: the % may be the effect or the level left; details: 0.5 h
Mus musculus [20] = species: Mus musculus; test: Antifibrotic activity against bleomycin-induced C57BL/6 mouse lung fibrosis model assessed as reduction in CD4-CD69+ T cell incubated for 30 mins by flow cytometry analysis; format: functional, organism-based
[21] = Toxicity in C57BL/6 mouse assessed as heart lesion at 60 mg/kg, ip by H and E staining based analysis; format: organism-based; details: in vivo
Mus musculus [22] = test: Antifibrotic activity against bleomycin-induced C57BL/6 mouse lung fibrosis model assessed as prevention of belomycin-induced alpha-SMA expression in lung at 60 mg/kg, ip by immunohistochemical staining based analysis; format: functional, organism-based
Mus musculus [23] = species: Mus musculus; test: Antifibrotic activity against bleomycin-induced C57BL/6 mouse lung fibrosis model assessed as reduction in CD11c+MHC II+ in dendritic cells in lung at low dose incubated for 30 mins by flow cytometry analysis ( Rvb = 23.67 %); format: functional; design: scale not given: the % may be the effect or the level left; details: 0.5 h
A549 [24] = test: Inhibition of epithelial-mesenchymal transition in human A549 cells assessed as effect on E-cadherin by measuring fluorescence intensity measured for 24 hrs by immunofluorescence assays; format: functional, cell-based
Mus musculus [25] = test: Antifibrotic activity against bleomycin-induced C57BL/6 mouse lung fibrosis model assessed as inhibition of hydroxyproline content in lung at 60 mg/kg, ip administered for 7 to 14 days; format: functional, organism-based; details: time 7-14 day
NIH3T3 [26] = test: Antiproliferative activity against mouse NIH3T3 cells assessed as cell growth inhibition incubated for 72 hrs by CCK-8 assay; format: functional, cell-based; details: dose 6.25-100 nM
[27] = Toxicity in C57BL/6 mouse assessed as liver lesion at 60 mg/kg, ip by H and E staining based analysis; format: organism-based; details: in vivo
NIH3T3 [28] = test: Antiproliferative activity against mouse NIH3T3 cells assessed as cell growth inhibition incubated for 24 to 72 hrs by CCK-8 assay; format: functional, cell-based
A549 [29] = test: Inhibition of epithelial-mesenchymal transition in TGF-beta1-induced human A549 cells assessed as effect on alpha-SMA by measuring fluorescence intensity at 200 nM incubated for 24 hrs by immunofluorescence assays; format: functional, cell-based
[30] = biological target: Signal transducer and activator of transcription 3 (Mus musculus) (UniProt P42227); test: Binding affinity to STAT3 in mouse NIH3T3 cells assessed as reduction in protein degradation; format: cell-based
Sequence of Signal transducer and activator of transcription 3 (Mus musculus) (P42227 whole entry): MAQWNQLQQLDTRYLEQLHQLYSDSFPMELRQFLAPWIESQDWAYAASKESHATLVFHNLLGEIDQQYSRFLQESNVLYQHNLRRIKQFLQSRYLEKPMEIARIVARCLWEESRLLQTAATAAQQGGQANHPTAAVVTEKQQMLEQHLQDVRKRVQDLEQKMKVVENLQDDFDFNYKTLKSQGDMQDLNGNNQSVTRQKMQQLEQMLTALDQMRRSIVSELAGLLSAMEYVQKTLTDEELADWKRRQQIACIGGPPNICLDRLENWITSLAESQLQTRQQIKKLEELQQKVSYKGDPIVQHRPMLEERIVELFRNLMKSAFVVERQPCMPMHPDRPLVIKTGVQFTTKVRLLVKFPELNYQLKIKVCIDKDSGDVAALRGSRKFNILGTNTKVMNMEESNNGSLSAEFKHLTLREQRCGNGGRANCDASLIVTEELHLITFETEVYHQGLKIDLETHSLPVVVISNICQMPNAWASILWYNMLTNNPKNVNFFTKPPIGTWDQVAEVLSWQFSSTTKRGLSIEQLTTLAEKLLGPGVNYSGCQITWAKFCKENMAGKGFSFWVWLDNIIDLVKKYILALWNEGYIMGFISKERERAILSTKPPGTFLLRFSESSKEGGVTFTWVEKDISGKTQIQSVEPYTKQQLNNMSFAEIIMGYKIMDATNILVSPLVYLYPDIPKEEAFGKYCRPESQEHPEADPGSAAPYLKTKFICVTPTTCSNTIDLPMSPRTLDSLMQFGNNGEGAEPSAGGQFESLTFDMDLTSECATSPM

Mus musculus [31] = species: Mus musculus; test: Antifibrotic activity against bleomycin-induced C57BL/6 mouse lung fibrosis model assessed as reduction in F4/80+CD11b+ macrophage in lung at high dose incubated for 30 mins by flow cytometry analysis ( Rvb = 17.96%); format: functional; design: scale not given: the % may be the effect or the level left; details: 0.5 h
[32] = Toxicity in C57BL/6 mouse assessed as spleen lesion at 60 mg/kg, ip by H and E staining based analysis; format: organism-based; details: in vivo
Mus musculus [33] = test: Antifibrotic activity against bleomycin-induced pulmonary fibrosis C57BL/6 mouse model assessed as reduction in alveolar septa thickness at 60 mg/kg, ip administered for 20 days and measured on 21 day; format: functional, organism-based
[34] = biological target: Signal transducer and activator of transcription 3 (Homo sapiens) (UniProt P40763); test: Binding affinity to STAT3 in human A549 cells assessed as reduction in protein degradation; format: cell-based
Sequence of Signal transducer and activator of transcription 3 (Homo sapiens) (P40763 whole entry): as the sequence (P42227 whole entry) above, with D760E counted along it

Mus musculus [35] = species: Mus musculus; test: Antifibrotic activity against bleomycin-induced C57BL/6 mouse lung fibrosis model assessed as reduction in CD11c+MHC II+ in dendritic cells incubated for 30 mins by flow cytometry analysis; format: functional, organism-based
Mus musculus [36] = species: Mus musculus; test: Antifibrotic activity against bleomycin-induced C57BL/6 mouse lung fibrosis model assessed as reduction in CD11c+MHC II+ in dendritic cells in lung at high dose incubated for 30 mins by flow cytometry analysis ( Rvb = 23.67 %); format: functional; design: scale not given: the % may be the effect or the level left; details: 0.5 h
Mus musculus [37] = species: Mus musculus; test: Antifibrotic activity against bleomycin-induced C57BL/6 mouse lung fibrosis model assessed as reduction in CD4-CD69+ T cell in lung at low dose incubated for 30 mins by flow cytometry analysis ( Rvb = 6.54%); format: functional; design: scale not given: the % may be the effect or the level left; details: 0.5 h

Q: For O=C(C1=Cc2ccccc2S1(=O)=O)N1CCN(Cc2cc(F)c(F)cc2F)CC1, which Activity (NIH3T3 [1]) is on record?
A: Active

Q: And the Activity (A549 [2])?
A: 50%

Q: And the Activity (Mus musculus [3])?
A: Active

Q: What about the inhibition (A549 [4]) of the same compound?
A: Active

Q: And the Activity (Mus musculus [5])?
A: Active

Q: And the inhibition (A549 [6])?
A: Active

Q: And the inhibition (NIH3T3 [7])?
A: Dose-Dependent Effect

Q: What about the Activity (A549 [8]) of the same compound?
A: Dose-Dependent Effect

Q: And the inhibition (A549 [9])?
A: Active

Q: What about the Activity (Mus musculus [10]) of the same compound?
A: Active

Q: What about the Activity (Mus musculus [11]) of the same compound?
A: Active

Q: And the Activity (A549 [12])?
A: Active

Q: What about the Activity (Mus musculus [13]) of the same compound?
A: 6.93%

Q: What about the Activity (NIH3T3 [14]) of the same compound?
A: Active

Q: What about the Activity (Mus musculus [15]) of the same compound?
A: Active

Q: What about the Activity (NIH3T3 [16]) of the same compound?
A: Active

Q: And the Activity [17]?
A: Non-Toxic

Q: What about the Activity (NIH3T3 [18]) of the same compound?
A: Active

Q: And the Activity (Mus musculus [19])?
A: 2.84%

Q: What about the Activity (Mus musculus [20]) of the same compound?
A: Active

Q: And the Activity [21]?
A: Non-Toxic

Q: And the Activity (Mus musculus [22])?
A: Active

Q: What about the Activity (Mus musculus [23]) of the same compound?
A: 12.37%

Q: What about the inhibition (A549 [24]) of the same compound?
A: Active

Q: What about the Activity (Mus musculus [25]) of the same compound?
A: Active

Q: And the Activity (NIH3T3 [26])?
A: Dose-Dependent Effect

Q: And the Activity [27]?
A: Non-Toxic

Q: What about the IC50 (NIH3T3 [28]) of the same compound?
A: 470 nM

Q: What about the inhibition (A549 [29]) of the same compound?
A: Active

Q: What about the Activity [30] of the same compound?
A: Active

Q: And the Activity (Mus musculus [31])?
A: 10.45%

Q: And the Activity [32]?
A: Non-Toxic

Q: And the Activity (Mus musculus [33])?
A: Active

Q: And the Activity [34]?
A: Active

Q: And the Activity (Mus musculus [35])?
A: Active

Q: And the Activity (Mus musculus [36])?
A: 9.28%

Q: And the Activity (Mus musculus [37])?
A: 0.65%
